Measurements from publication PMC5700124 (Scientific Reports, 2017).
Entries after “also recorded” stand apart in the source; their conditions may differ. Read-outs that look alike come from different tables or passages of the source.

Legend:
[1] = system: α7 nicotinic acetylcholine receptors; set-up: method as in PMID 26455500; conditions: 1.24 mg/kg; cited from earlier work
α2 adrenoceptor = conditions: anterior forebrain; autoradiography; pH 7.7, 22 °C, mg^2+ 0; blocking of NS phentolamine 10 μM; ref Boyajian et al.[41]; cited from earlier work
plasma proteins [2] = system: plasma proteins; set-up: method as in PMID 7836362; conditions: cited from earlier work
α1 and α2 adrenoceptors = system: α1 and α2 adrenoceptors; set-up: method as in PMID 16153828; conditions: cited from earlier work
[3] = system: [^11C]mirtazepin binding in porcine brain; set-up: method as in Smith et al.[34]; conditions: ref Smith et al.[34], cited from earlier work
plasma proteins [4] = assay: Plasma ultrafiltration, ex vivo (plasma free fraction fP of [^11C]yohimbine); format: in vitro ADME, rat; conditions: 0.3 mg/kg yohimbine i.v., P < 0.05
Method: In the ex vivo experiment, a separate group of six female Sprague Dawley rats were subjected to plasma ultrafiltration and treated identically to animals that underwent PET acquisition. […] We centrifuged the blood samples in heparinized tubes for 20 min at 4 °C to generate plasma and stored the samples at −50 °C.
To measure fP , we used the Centrifree centrifugal filter device (Millipore, Bedford, MA) with a molecular cutoff of 30 kDa for all samples. […] On the day of fP determination, the plasma samples were thawed in room temperature in 20 min. […] After 10 minutes incubation at room temperature, aliquots of 50 μl of this solution were used to measure the total activity (unfiltered plasma). […] The activity of filtered plasma was determined in triplicates. All samples were counted in a gamma device (Packard Cobra Gamma Counter, Model D5003). […] The correction factor, r, was determined as the ratio of the activity in the phosphate buffer before filtration, Abuffer(total), to the filtered buffer, Abuffer(ultrafiltrate),38 r=Abuffer(total)/Abuffer(ultrafiltrate), from which the plasma-free fraction, fP , was calculated as the ratio of the activity of the filtered plasma, Aplasma(ultrafiltrate), to the unfiltered plasma, Aplama(total), multiplied by the correction factor, r, for recovery,39 fP=rAplasma(ultrafiltrate)/Aplasma(total),

α2 adrenoceptors [5] = system: α2 adrenoceptors; set-up: method as in Jakobsen and colleagues[14]; conditions: porcine brain, ref Jakobsen and colleagues[14], cited from earlier work
α2 adrenoceptor subtypes = system: α2 adrenoceptor subtypes; set-up: method as in PMID 7908054; conditions: cited from earlier work
plasma proteins [6] = conditions: in the circulation; cited from earlier work
α2 adrenoceptors [7] = assay: PET of [^11C]yohimbine binding in rat brain at baseline and at challenge with unlabeled yohimbine; conditions: for Binding potentials, BPND, percent-wise change (%) / Volumes of Distribution, VT, percent-wise change (%): COLD vs BASE, individual rats 1-5
[8] = rats; cited from earlier work
[9] = set-up: method as in Jakobsen et al.[14]; conditions: pigs, ref Jakobsen et al.[14], cited from earlier work
[10] = system: translocator protein (TSPO); set-up: method as in Hilmer et al.[39]; conditions: 0.1 ng/kg i.v.; ref Hilmer et al.[39]; cited from earlier work
[11] = CEREB cerebellum, unlabeled yohimbine 0.3 mg/kg i.v.
[12] = CP caudate putamen, unlabeled yohimbine 0.3 mg/kg i.v.
[13] = HYP hypothalamus, unlabeled yohimbine 0.3 mg/kg i.v.
[14] = MC motor cortex, unlabeled yohimbine 0.3 mg/kg i.v.
[15] = OLF olfactory bulb, unlabeled yohimbine 0.3 mg/kg i.v.
[16] = PFC prefrontal cortex, unlabeled yohimbine 0.3 mg/kg i.v.
[17] = SSC somatosensory cortex, unlabeled yohimbine 0.3 mg/kg i.v.
[18] = THAL thalamus, unlabeled yohimbine 0.3 mg/kg i.v.
[19] = unlabeled yohimbine 0.3 mg/kg vs baseline

O=S1(=O)c2cc(N3CCN4CCC3CC4)ccc2-c2cccc(F)c21 [ASEM]
increase of fP of [^18F] DBT-10 [1]: two-fold increase

COC(=O)[C@H]1[C@H]2C[C@H]3c4[nH]c5ccccc5c4CCN3C[C@H]2CC[C@@H]1O [[^3H] -rauwolscine, [^3H]rauwolscine]
Kd (α2 adrenoceptor): 0.79 nM

C=CC1=C(C)/C(=C/c2[nH]c(Cc3[nH]c(/C=C4\NC(=O)C(C)=C4C=C)c(C)c3CCC(=O)O)c(CCC(=O)O)c2C)NC1=O [bilirubin]
rate of relaxation from plasma proteins (plasma proteins [2]): 0.6 s⁻¹

Cc1ccc(N(CC2=NCCN2)c2cccc(O)c2)cc1 [phentolamine]
selectivity between α1 and α2 adrenoceptors (α1 and α2 adrenoceptors): higher selectivity to α1 adrenoceptor

COC(=O)[C@@H]1[C@H]2C[C@H]3c4[nH]c5ccccc5c4CCN3C[C@@H]2CC[C@@H]1O [yohimbine]
reduction of [^11C]mirtazepin binding ([3]; 0.3 mg/kg): 23% | reduction of [^11C]mirtazepin binding ([3]; 3.0 mg/kg): 43% | increase of plasma free fraction fP of [^11C]yohimbine compared to baseline (plasma proteins [4]): 30% | reduction of VT of [^11C]yohimbine (α2 adrenoceptors [5]; low dose 0.07 mg/kg): approximately 30% | reduction of VT of [^11C]yohimbine (α2 adrenoceptors [5]; pre-treatment 1.7 mg/kg): failed to decrease VT further | affinity to α2 adrenoceptor subtypes (α2 adrenoceptor subtypes): does not distinguish between the subtypes | fraction bound to plasma proteins (plasma proteins [6]): More than 80% | Binding potentials, BPND, percent-wise change (%) (α2 adrenoceptors [7]; [11]): (−54) %; also recorded: (−63) %; also recorded: (−82) %; also recorded: (−56) %; also recorded: (−51) % | Volumes of Distribution, VT, percent-wise change (%) (α2 adrenoceptors [7]; [11]): (19) %; also recorded: (5) %; also recorded: (0) %; also recorded: (16) %; also recorded: (27) % | Binding potentials, BPND, percent-wise change (%) (α2 adrenoceptors [7]; [12]): (−64) %; also recorded: (−59) %; also recorded: (−55) %; also recorded: (−47) % | Volumes of Distribution, VT, percent-wise change (%) (α2 adrenoceptors [7]; [12]): (−6) %; also recorded: (5) %; also recorded: (25) %; also recorded: (3) %; also recorded: (34) % | Binding potentials, BPND, percent-wise change (%) (α2 adrenoceptors [7]; HIP hippocampus, unlabeled yohimbine 0.3 mg/kg i.v.): (−59) %; also recorded: (−58) %; also recorded: (−50) %; also recorded: (−54) %; also recorded: (−46) % | Volumes of Distribution, VT, percent-wise change (%) (α2 adrenoceptors [7]; HIPP hippocampus, unlabeled yohimbine 0.3 mg/kg i.v.): (4) %; also recorded: (9) %; also recorded: (36) %; also recorded: (14) %; also recorded: (35) % | Binding potentials, BPND, percent-wise change (%) (α2 adrenoceptors [7]; [13]): (−58) %; also recorded: (−61) %; also recorded: (−65) %; also recorded: (−53) %; also recorded: (−49) % | Volumes of Distribution, VT, percent-wise change (%) (α2 adrenoceptors [7]; [13]): (7) %; also recorded: (5) %; also recorded: (13) %; also recorded: (18) %; also recorded: (33) % | Binding potentials, BPND, percent-wise change (%) (α2 adrenoceptors [7]; [14]): (−63) %; also recorded: (−65) %; also recorded: (−50) %; also recorded: (−61) %; also recorded: (−42) % | Volumes of Distribution, VT, percent-wise change (%) (α2 adrenoceptors [7]; [14]): (1) %; also recorded: (−6) %; also recorded: (39) %; also recorded: (−1) %; also recorded: (44) % | Binding potentials, BPND, percent-wise change (%) (α2 adrenoceptors [7]; [15]): (−71) %; also recorded: (−60) %; also recorded: (−78) %; also recorded: (−53) %; also recorded: (−58) % | Volumes of Distribution, VT, percent-wise change (%) (α2 adrenoceptors [7]; [15]): (−15) %; also recorded: (10) %; also recorded: (−6) %; also recorded: (22) %; also recorded: (23) % | Binding potentials, BPND, percent-wise change (%) (α2 adrenoceptors [7]; [16]): (−63) %; also recorded: (−60) %; also recorded: (−39) %; also recorded: (−61) %; also recorded: (−44) % | Volumes of Distribution, VT, percent-wise change (%) (α2 adrenoceptors [7]; [16]): (−1) %; also recorded: (4) %; also recorded: (53) %; also recorded: (0) %; also recorded: (40) % | Binding potentials, BPND, percent-wise change (%) (α2 adrenoceptors [7]; [17]): (−63) %; also recorded: (−62) %; also recorded: (−45) %; also recorded: (−59) %; also recorded: (−41) % | Volumes of Distribution, VT, percent-wise change (%) (α2 adrenoceptors [7]; [17]): (−2) %; also recorded: (0) %; also recorded: (47) %; also recorded: (3) %; also recorded: (45) % | Binding potentials, BPND, percent-wise change (%) (α2 adrenoceptors [7]; [18]): (−58) %; also recorded: (−57) %; also recorded: (−52) %; also recorded: (−44) % | Volumes of Distribution, VT, percent-wise change (%) (α2 adrenoceptors [7]; [18]): (7) %; also recorded: (22) %; also recorded: (15) %; also recorded: (37) % | degree of saturation, s (available receptors blocked) (α2 adrenoceptors [7]; average, 0.3 mg/kg yohimbine challenge, Extended Inhibition Plot): 56% | decline of BPND of [^11C]yohimbine in the challenge condition compared to baseline (α2 adrenoceptors [7]; on average, unlabeled yohimbine 0.3 mg/kg i.v.): 50–60% | effect of challenge on K1 of [^11C]yohimbine (α2 adrenoceptors [7]; [19]): markedly elevated | effect of challenge on k2′ of [^11C]yohimbine (α2 adrenoceptors [7]; [19]): higher | effect on blood pressure and heart rate [8]: raise blood pressure and heart rate | global lowering of CBF ([9]; higher dose 1.6 mg/kg): 30% | effect on CBF ([9]; low dose 0.07 mg/kg): unaffected

lipopolysaccharide [LPS]
increase of [^11C] PBR28 VT [10]: 39%
